Measurements reported in ChEMBL document CHEMBL4610038, “The synthesis of trifluoromethylated N-nitroaryl-2-amino-1,3-dichloropropane derivatives and their evaluation as potential anti-cancer agents” (Bioorg Med Chem Lett, 2020).

Tests used:
[1] = test system: CNE; assay: Cytotoxicity against human CNE1 cells assessed as cell viability at 100 uM relative to control; assay type: functional; conditions: read-out: Activity
[2] = test system: MDA-MB-468; assay: Cytotoxicity against human MDA-MB-468 cells assessed as reduction in cell viability; assay type: functional, cell-based
[3] = test system: A549; assay: Cytotoxicity against human A549 cells assessed as reduction in cell viability; assay type: functional, cell-based
[4] = test system: HT-29; assay: Cytotoxicity against human HT-29 cells assessed as reduction in cell viability; assay type: functional, cell-based
[5] = test system: MCF7; assay: Cytotoxicity against human MCF7 cells assessed as cell viability at 100 uM relative to control; assay type: functional; conditions: read-out: Activity
[6] = test system: SUNE1; assay: Cytotoxicity against human SUNE1 cells assessed as cell viability at 100 uM relative to control; assay type: functional; conditions: read-out: Activity
[7] = test system: SW1990; assay: Cytotoxicity against human SW1990 cells assessed as cell viability at 100 uM relative to control; assay type: functional; conditions: read-out: Activity
[8] = test system: ASPC1; assay: Cytotoxicity against human AsPC1 cells assessed as reduction in cell viability; assay type: functional, cell-based
[9] = test system: SW48; assay: Cytotoxicity against human SW48 cells assessed as reduction in cell viability; assay type: functional, cell-based
[10] = test system: T47D; assay: Cytotoxicity against human T47D cells assessed as cell viability at 100 uM relative to control; assay type: functional; conditions: read-out: Activity
[11] = test system: T47D; assay: Cytotoxicity against human T47D cells assessed as reduction in cell viability; assay type: functional, cell-based
[12] = test system: Caco-2; assay: Cytotoxicity against human Caco2 cells assessed as reduction in cell viability; assay type: functional, cell-based
[13] = test system: ASPC1; assay: Cytotoxicity against human AsPC1 cells assessed as cell viability at 100 uM relative to control; assay type: functional; conditions: read-out: Activity
[14] = test system: MDA-MB-231; assay: Cytotoxicity against human MDA-MB-231 cells assessed as reduction in cell viability; assay type: functional, cell-based
[15] = test system: SH-SY5Y; assay: Cytotoxicity against human SH-SY5Y cells assessed as cell viability at 100 uM relative to control; assay type: functional; conditions: read-out: Activity
[16] = Cytotoxicity against human HK1 cells assessed as cell viability at 100 uM relative to control; assay type: functional; conditions: HK-1, read-out: Activity
[17] = test system: MRC5; assay: Cytotoxicity against human MRC5 cells assessed as reduction in cell viability; assay type: cell-based
[18] = test system: HCT-116; assay: Cytotoxicity against human HCT116 cells assessed as cell viability at 100 uM relative to control; assay type: functional; conditions: read-out: Activity
[19] = test system: NCI-H1299; assay: Cytotoxicity against human H1299 cells assessed as reduction in cell viability; assay type: functional, cell-based
[20] = test system: A549; assay: Cytotoxicity against human A549 cells assessed as cell viability at 100 uM relative to control; assay type: functional; conditions: read-out: Activity
[21] = test system: BXPC-3; assay: Cytotoxicity against human BxPC3 cells assessed as reduction in cell viability; assay type: functional, cell-based
[22] = Cytotoxicity against human MCF10A cells assessed as cell viability at 100 uM relative to control; assay type: cell-based, MCF-10A; conditions: read-out: Activity
[23] = Cytotoxicity against human MRC5 cells assessed as cell viability at 100 uM relative to control; assay type: cell-based; conditions: read-out: Activity
[24] = test system: MDA-MB-231; assay: Cytotoxicity against human MDA-MB-231 cells assessed as cell viability at 100 uM relative to control; assay type: functional; conditions: read-out: Activity
[25] = test system: MDA-MB-468; assay: Cytotoxicity against human MDA-MB-468 cells assessed as cell viability at 100 uM relative to control; assay type: functional; conditions: read-out: Activity
[26] = test system: SK-BR-3; assay: Cytotoxicity against human SKBR3 cells assessed as cell viability at 100 uM relative to control; assay type: functional; conditions: read-out: Activity
[27] = test system: Caco-2; assay: Cytotoxicity against human Caco2 cells assessed as cell viability at 100 uM relative to control; assay type: functional; conditions: read-out: Activity
[28] = test system: MCF7; assay: Cytotoxicity against human MCF7 cells assessed as reduction in cell viability; assay type: functional, cell-based
[29] = Cytotoxicity against human HK1 cells assessed as reduction in cell viability; assay type: functional, cell-based; conditions: HK-1
[30] = test system: HT-29; assay: Cytotoxicity against human HT-29 cells assessed as cell viability at 100 uM relative to control; assay type: functional; conditions: read-out: Activity
[31] = test system: HCT-116; assay: Cytotoxicity against human HCT116 cells assessed as reduction in cell viability; assay type: functional, cell-based
[32] = test system: SW48; assay: Cytotoxicity against human SW48 cells assessed as cell viability at 100 uM relative to control; assay type: functional; conditions: read-out: Activity
[33] = test system: SH-SY5Y; assay: Cytotoxicity against human SH-SY5Y cells assessed as reduction in cell viability; assay type: functional, cell-based
[34] = test system: SUNE1; assay: Cytotoxicity against human SUNE1 cells assessed as reduction in cell viability; assay type: functional, cell-based
[35] = test system: SK-BR-3; assay: Cytotoxicity against human SKBR3 cells assessed as reduction in cell viability; assay type: functional, cell-based
[36] = test system: BXPC-3; assay: Cytotoxicity against human BxPC3 cells assessed as cell viability at 100 uM relative to control; assay type: functional; conditions: read-out: Activity
[37] = test system: NCI-H1299; assay: Cytotoxicity against human H1299 cells assessed as cell viability at 100 uM relative to control; assay type: functional; conditions: read-out: Activity
[38] = test system: SW1990; assay: Cytotoxicity against human SW1990 cells assessed as reduction in cell viability; assay type: functional, cell-based
[39] = test system: MCF-10A; assay: Cytotoxicity against human MCF10A cells assessed as reduction in cell viability; assay type: cell-based
[40] = test system: CNE; assay: Cytotoxicity against human CNE1 cells assessed as reduction in cell viability; assay type: functional, cell-based

SMILES	viability at 100 µM [1] [%]	IC50 [2] [µM]	IC50 [3] [µM]	IC50 [4] [µM]	viability at 100 µM [5] [%]	viability at 100 µM [6] [%]	viability at 100 µM [7] [%]	IC50 [8] [µM]	IC50 [9] [µM]	viability at 100 µM [10] [%]	IC50 [11] [µM]	IC50 [12] [µM]	viability at 100 µM [13] [%]	IC50 [14] [µM]	viability at 100 µM [15] [%]	viability at 100 µM [16] [%]	IC50 [17] [µM]	viability at 100 µM [18] [%]	IC50 [19] [µM]	viability at 100 µM [20] [%]	further results
O=[N+]([O-])c1ccc(NC(CCl)CCl)c(C(F)(F)F)c1	12.4	52.1	57.7	92.1	10.5	38.6	28.6	85.1	33.4	24.3	34.7	10.1	40.2	42.4	21.6	61.4	31	24.5	49.1	37.1	IC50 [21]: 52.1 µM; viability at 100 µM [22]: 47.5%; viability at 100 µM [23]: 22.2%; viability at 100 µM [24]: 31.8%; viability at 100 µM [25]: 20.4%; viability at 100 µM [26]: 55.6%; viability at 100 µM [27]: 9.5%; IC50 [28]: 12.1 µM; IC50 [29]: > 100 µM; viability at 100 µM [30]: 45.3%; IC50 [31]: 33.1 µM; viability at 100 µM [32]: 26.5%; IC50 [33]: 33.7 µM; IC50 [34]: 55.1 µM; IC50 [35]: > 100 µM; viability at 100 µM [36]: 23.2%; viability at 100 µM [37]: 38.1%; IC50 [38]: 33.3 µM; IC50 [39]: 81 µM; IC50 [40]: 15.3 µM
O=[N+]([O-])c1ccc(NC(CO)CO)c(C(F)(F)F)c1	82.5	> 100	> 100	> 100	45.7	52.4	72.4	> 100	> 100	59.1	> 100	> 100	84.7	> 100	74.7	90.4	> 100	84.9	> 100	99.6	IC50 [21]: > 100 µM; viability at 100 µM [22]: 88.8%; viability at 100 µM [23]: 74.9%; viability at 100 µM [24]: 93.1%; viability at 100 µM [25]: 93.2%; viability at 100 µM [26]: 75.2%; viability at 100 µM [27]: 101%; IC50 [28]: 88.3 µM; IC50 [29]: > 100 µM; viability at 100 µM [30]: 84.2%; IC50 [31]: > 100 µM; viability at 100 µM [32]: 61.8%; IC50 [33]: > 100 µM; IC50 [34]: > 100 µM; IC50 [35]: > 100 µM; viability at 100 µM [36]: 109%; viability at 100 µM [37]: 93.1%; IC50 [38]: > 100 µM; IC50 [39]: > 100 µM; IC50 [40]: > 100 µM
O=[N+]([O-])c1ccc(NC(CCl)CCl)cc1C(F)(F)F	32.6	> 100	70.4	63.1	20.5	44.9	36.7	> 100	43.4	33.2	64.1	37.1	58.7	> 100	30.6	59.7	33.9	45	> 100	27.8	IC50 [21]: > 100 µM; viability at 100 µM [22]: 59.7%; viability at 100 µM [23]: 22.1%; viability at 100 µM [24]: 57.4%; viability at 100 µM [25]: 58.6%; viability at 100 µM [26]: 52.7%; viability at 100 µM [27]: 20.9%; IC50 [28]: 33.1 µM; IC50 [29]: > 100 µM; viability at 100 µM [30]: 38.4%; IC50 [31]: 83.8 µM; viability at 100 µM [32]: 29.1%; IC50 [33]: 56.4 µM; IC50 [34]: 93.1 µM; IC50 [35]: > 100 µM; viability at 100 µM [36]: 56.5%; viability at 100 µM [37]: 43.7%; IC50 [38]: 55.8 µM; IC50 [39]: > 100 µM; IC50 [40]: 33.2 µM
